# From patent publication US20230323463A1, “COMPOSITIONS AND METHODS FOR DETECTING BCL2L14 AND ETV6 GENE FUSIONS FOR DETERMINING INCREASED DRUG RESISTANCE” (UNIVERSITY OF PITTSBURGH-OF THE COMMONWEALTH SYSTEM OF …, priority 2020, published 2023)
# “Also recorded” adds a separate entry of the source.
# Assays:
# Assay type in all cases: cell-based, human
# [1] = system: engineered stable MCF10A cells; assay: Clonogenic assay after prolonged paclitaxel treatment, MCF10A; conditions: MCF10A cells expressing BCL2L14-ETV6 fusions vs vector or wtETV6; 15 nM paclitaxel, one month
# Method: (§1) Cell proliferation and clonogenic assays. Engineered stable BT20 cells were seeded at a density of 3,000 cells/well in a 96-well plate. Cell proliferation was measured by MTS assay at different time points using CellTiter 96 AQueous One Solution Cell Proliferation Assay (Promega). For paclitaxel dose curve, stable BT20 cells were seeded at a density of 5000 cells/well in a 96-well plate and treated with vehicle or different doses of paclitaxel. Cell proliferation was measured by MTS assay after 72 hours of treatment. For clonogenic assay, stable BT20 or MCF10A cells were seeded at a density of 10,000 cells/well in a 24-well plate. After attachment to the plate, cells were treated with 0.1% DMSO (vehicle) or paclitaxel at 5 nM for BT20 cells for 6 days or 15 nM for MCF10A cells for 5 days before replacement of the chemical with fresh growth medium. The remaining colonies were growing in the plate for one month and then stained with 0.5% crystal violet in 50% ethanol and counted using ChemiDoc photography (Bio-Rad) and ImageJ.
# [2] = system: engineered stable BT20 cells; assay: Clonogenic assay after prolonged paclitaxel treatment, BT20; conditions: 5 nM paclitaxel, one month
# Method: as §1
# [3] = system: engineered stable BT20 cells; assay: Paclitaxel dose curve, cell proliferation by MTS assay; conditions: BT20 cells expressing BCL2L14-ETV6 fusions vs vector or wtETV6; short-term (72 h) treatment, various doses
# Method: as §1
# engineered BT20 cells = assay: Apoptotic biomarkers by immunoblotting after paclitaxel treatment; conditions: BT20 cells overexpressing BCL2L14-ETV6 fusions vs wtETV6-expressing cells; 48 hours
# Method: Western blot. For immunoblot analysis, total proteins were extracted by homogenizing the cells in NP40 Lysis Buffer supplemented with complete protease inhibitor cocktail tablet (Roche), 1 mM DTT, and 1 mM PMSF. 20~50 micrograms of protein extracts were denatured in sample buffer, separated by SDS-PAGE, and transferred onto a PVDF membrane (GE). The membranes were blocked and then incubated for 1 h at room temperature or overnight at 4° C. with primary antibodies, followed by incubation with respective horseradish peroxidaseconjugated secondary antibody. The signals were then visualized by the enhanced chemiluminescence system (Clarity Western ECL Substrate and ChemiDoc imaging system, Bio-Rad).
compound,measurement,setting,value
CC(=O)O[C@H]1C(=O)[C@@]2(C)[C@H]([C@H](OC(=O)c3ccccc3)[C@]3(O)C[C@H](OC(=O)[C@H](O)[C@@H](NC(=O)c4ccccc4)c4ccccc4)C(C)=C1C3(C)C)[C@]1(OC(C)=O)CO[C@@H]1C[C@@H]2O [paclitaxel],clonal resistance to paclitaxel,[1],increased clonal resistance; also recorded: clonal resistance in MCF10A cells
same,clonal resistance to paclitaxel,"[2]; BT20 cells expressing BCL2L14-ETV6 fusions (E2E3, E4E3, E4E2)",evident clonal resistance; also recorded: clonal resistance in BT20 cells
same,clonal survival after paclitaxel,[2]; BT20 cells expressing wtETV6 or vector control,almost eradicated
same,sensitivity to paclitaxel (cell viability),[3],modest reduced sensitivity; also recorded: increased resistance
same,apoptosis biomarkers following paclitaxel treatment,engineered BT20 cells,did not show evident reduced apoptosis
